Test results published in ChEMBL document CHEMBL3507680, “University of Dundee, Gates Library screen for HepG2 cell viability”.

Assay: Human HepG2 cell viability assay in 384 well format
Assay type: toxicity, cell-based
Set-up: dose 125 nL, time 70.5 hour; cytotoxicity at 70.5 h: concentration not given beside the values
Conditions: HepG2 cells, read-out: Inhibition

O=C(Cc1cccs1)NC1CCN(c2cccc(F)c2)CC1
cytotoxicity at 70.5 h: 1.18%

Cc1cc(NC(=O)CN2CCCC2c2noc(C3CC3)n2)no1 (stereo not given)
cytotoxicity at 70.5 h: 1.09%

Cc1cc(N2CCC(N(C)C(=O)Nc3ccccc3)CC2)nc(C)n1
cytotoxicity at 70.5 h: 2.35%

O=C(NCC(O)c1ccccc1Cl)c1cccc(-n2cnnn2)c1 (stereo not given)
cytotoxicity at 70.5 h: -0.179%

C1CC1c1nsc(N2CCN(C3CC3)CC2)n1
cytotoxicity at 70.5 h: 1.41%

Cn1c(CN2CCN(CC3CC3)CC2)nnc1C1CCC1
cytotoxicity at 70.5 h: 20.3%

CCN1CCCC1CN(CCN(C)C)S(=O)(=O)c1cccc(C#N)c1 (stereo not given)
cytotoxicity at 70.5 h: -1.36%

Cc1cccc(CNCc2c(C(C)C)nn(C)c2N2CCOCC2)n1
cytotoxicity at 70.5 h: 0.6%

Cc1nc(C)n(CC2CCCN2CC(=O)NCCc2ccccc2)n1 (stereo not given)
cytotoxicity at 70.5 h: -4.21%

Cc1cc(CNC(=O)N2CCN(c3ccccc3)CC2)no1
cytotoxicity at 70.5 h: -3.89%

CCS(=O)(=O)CCn1ccc(NC(=O)CCc2cccc(C)c2)n1
cytotoxicity at 70.5 h: -2.75%

CC(Oc1ccccc1C(F)(F)F)C(=O)NS(=O)(=O)C(C)C (stereo not given)
cytotoxicity at 70.5 h: 1.98%

Cc1nc(C)n(C2CCCN(C(=O)c3ccc(F)cc3F)C2)n1 (stereo not given)
cytotoxicity at 70.5 h: -4.94%

Cc1nc(C)c(CNC(=O)NC(c2nnc3n2CCC3)C(C)C)s1 (stereo not given)
cytotoxicity at 70.5 h: -1.59%

Cc1ncsc1C(=O)NCCOc1ncc(Cl)cc1Cl
cytotoxicity at 70.5 h: 1.13%

CC(C)C(NC(=O)NCC1(CO)CC1)c1nnc2n1CCC2 (stereo not given)
cytotoxicity at 70.5 h: -4.32%

Cc1cc(CNC(=O)N2CCN(c3nc(C)c(C)s3)CC2)no1
cytotoxicity at 70.5 h: 7.38%

Cc1nccc(C(=O)N2CCCN(Cc3cnn(C(C)C)c3)CC2)n1
cytotoxicity at 70.5 h: -4.5%

CCn1ccnc1CN1CCN(CCC(=O)NC(C)(C)C)CC1C (stereo not given)
cytotoxicity at 70.5 h: -1.52%

CCc1ccc(NC(=O)N2C[C@H]3C[C@H](C(=O)N4CCCC4)[C@@H](C2)O3)cc1
cytotoxicity at 70.5 h: 21%

O=C(c1ccc[nH]1)N1CCc2ncc(Cn3cccn3)n2CC1
cytotoxicity at 70.5 h: 18.1%

O=C(Nc1ccc(F)cc1)N1C[C@H]2C[C@H](C(=O)N3CCCC3)[C@@H](C1)O2
cytotoxicity at 70.5 h: -9.47%

CN(C)C(=O)N1CCC(c2nc3ccc(-c4ccccc4)cn3n2)CC1
cytotoxicity at 70.5 h: -4.01%

CC(C)OC[C@H]1CCC[C@]12CN(S(=O)(=O)c1cn(C)cn1)CCO2
cytotoxicity at 70.5 h: -4.1%

O=c1cc(Cn2ccnc2)nc2n1CCCN(S(=O)(=O)C1CC1)C2
cytotoxicity at 70.5 h: -11.3%

Cc1cc(C(=O)N2CC[C@H]3[C@H]2CCN3S(C)(=O)=O)c(C)o1
cytotoxicity at 70.5 h: 0.739%

CN(C)C(=O)CN1CCc2ncnc(C3CC3)c2CC1
cytotoxicity at 70.5 h: 2.76%

CC(C)NC(=O)N1CC[C@@H]2CN(S(C)(=O)=O)CCO[C@@H]2C1
cytotoxicity at 70.5 h: -4.96%

CO[C@H]1CO[C@@]2(CCCN(S(=O)(=O)c3ccccc3)C2)C1
cytotoxicity at 70.5 h: -10.1%

O=S(=O)(c1ccccc1)N1CC[C@]2(C[C@@H](OCC3CC3)CO2)C1
cytotoxicity at 70.5 h: -10.2%

Cn1cc(CN2CCCC23CCN(S(C)(=O)=O)CC3)cn1
cytotoxicity at 70.5 h: -2.11%

Cc1cc(CN2CCC3(CC2)C(=O)NCCN3CC2CC2)oc1C
cytotoxicity at 70.5 h: 9.39%

C[C@H]1C[C@@H]2CCN(C(=O)c3cccn3C)C[C@H]2O1
cytotoxicity at 70.5 h: -12.7%

CN(C)CCN1CCC2(CC1)CN(c1cccnc1)C(=O)CO2
cytotoxicity at 70.5 h: -13.5%

O=C(c1cnccn1)N1CCc2onc(CN3CCOCC3)c2C1
cytotoxicity at 70.5 h: 23.2%

CNC(=O)c1nc2c(s1)CCN(C(=O)Cc1ccc(OC)cc1)CC2
cytotoxicity at 70.5 h: 20.5%

Cc1cc(C(=O)N2CCc3ncc(CN4CCOCC4)n3CC2)no1
cytotoxicity at 70.5 h: 28.9%

CC(C)CN1C[C@H]2C[C@H](C(=O)Nc3cccnc3)[C@@H](C1)O2
cytotoxicity at 70.5 h: -4.05%

Cc1cc(C(=O)N2CC[C@@H]3CN(c4ncccn4)CCO[C@@H]3C2)c(C)o1
cytotoxicity at 70.5 h: -12.2%

Cn1cc(C2COC3(CCN(C(=O)c4ccc(F)cc4)CC3)C2)cn1 (stereo not given)
cytotoxicity at 70.5 h: -2.41%

O=C(O)CC1CN(Cc2ccccc2)CCO1 (stereo not given)
cytotoxicity at 70.5 h: -0.381%

O=C(NCc1cncc2c1CCN(C1CCOCC1)C2)c1ccno1
cytotoxicity at 70.5 h: -7.6%

O=C(NCc1cncc2c1CCN(C1CCOCC1)C2)c1ccco1
cytotoxicity at 70.5 h: -2.15%

c1cncc(OC[C@@H]2CCC[C@@]23CNCCO3)c1
cytotoxicity at 70.5 h: 14.3%

O=C(C1CCCO1)N1CCCC2(CCN(c3cccnc3)CC2)C1 (stereo not given)
cytotoxicity at 70.5 h: -3.98%

Cn1ccnc1CN1CCc2onc(COCC3CC3)c2C1
cytotoxicity at 70.5 h: -4.62%

CN(C)C(=O)CN1CC[C@]2(CN(CC3CC3)C[C@H]2c2ccccc2)C1=O
cytotoxicity at 70.5 h: -6.06%

CN(C)Cc1cc(=O)n2c(n1)CN(S(=O)(=O)C1CC1)CCC2
cytotoxicity at 70.5 h: -6.08%

CN(C)C(=O)CN1CCc2ncnc(NC3CCC3)c2CC1
cytotoxicity at 70.5 h: 0.00388%

Cc1cc(C)cc(CN2C[C@@H]3OCCN(CC(=O)N(C)C)[C@@H]3C2)c1
cytotoxicity at 70.5 h: -0.77%

Cc1ncnc2c1CCN(CC(=O)N(C)C)CC2
cytotoxicity at 70.5 h: -5.19%

Cc1cccc(S(=O)(=O)N2CC[C@H]3CO[C@H](CN(C)C)[C@H]3C2)c1
cytotoxicity at 70.5 h: -6.86%

CN(C)C(=O)CC1CC2(CCN(CC3CC3)CC2)c2cc(F)ccc21 (stereo not given)
cytotoxicity at 70.5 h: 35.7%

CCc1cnc(N2CCC3(CC2)CN(c2cccnc2)C(=O)CO3)nc1
cytotoxicity at 70.5 h: 23.8%

CS(=O)(=O)NC[C@]12COC[C@H]1CN(CC1CCCC1)C2
cytotoxicity at 70.5 h: -12.8%

CCC1=N[C@@]2(CC[C@@H]3CN(Cc4ccc(Cl)cc4)C[C@@H]32)C(=O)N1C
cytotoxicity at 70.5 h: -15.2%

Cc1ccc(C(=O)N2CCC3(CCN(C(=O)c4cccnc4)C3)CC2)o1
cytotoxicity at 70.5 h: -19.3%

CCN(CC)Cc1cn2c(n1)CN(C(=O)c1cnccn1)CC2
cytotoxicity at 70.5 h: -13.4%

Cc1cc(CN2CC[C@H]3C[C@H](C(=O)N4CCC(C)CC4)O[C@H]3C2)no1
cytotoxicity at 70.5 h: -9.04%

O=C(c1ccc(F)cc1)N1C[C@H]2CCC[C@@]2(COCc2ccccn2)C1
cytotoxicity at 70.5 h: -15.6%

O=C(NC1CC1)[C@@H]1CCO[C@@H]2CCN(Cc3ccsc3)C[C@H]21
cytotoxicity at 70.5 h: -2.46%

Cc1ccc(C(=O)N2C[C@@H]3OCCN(CCN4CCCC4)[C@@H]3C2)cn1
cytotoxicity at 70.5 h: -4.09%

Cn1cc(CN2CCC[C@]3(C[C@@H](Oc4ncccc4F)CO3)C2)cn1
cytotoxicity at 70.5 h: -6.45%

COc1ncccc1CN1C[C@H]2CCN(C(C)C)C[C@H]2C1
cytotoxicity at 70.5 h: -4.86%

Cc1nc(CN2CCN3C[C@H](Oc4cncnc4)C[C@H]3C2)cs1
cytotoxicity at 70.5 h: 5.24%

Cn1ccc(CN2CCCC23CCN(Cc2cccc(F)c2)CC3)n1
cytotoxicity at 70.5 h: 0.351%

Cn1ccc(CN2CCCC23CCN(Cc2nccn2C)CC3)n1
cytotoxicity at 70.5 h: -2.05%

Cn1ccnc1CN1CCCC2(CCN(CC3CCCO3)CC2)C1 (stereo not given)
cytotoxicity at 70.5 h: 4.14%

c1cc(CN2CCO[C@H]3[C@H](OCC4CCCC4)CC[C@@H]32)ccn1
cytotoxicity at 70.5 h: -5.29%

CN(C)CCN1CCO[C@@H]2CN(C(=O)c3cccs3)CC[C@@H]2C1
cytotoxicity at 70.5 h: -16.4%

CC(C)CN1C[C@H]2CCN(Cc3cccnc3)CC[C@H]2S1(=O)=O
cytotoxicity at 70.5 h: -10.9%

CC(C)N1Cc2c(C(=O)N3CCOCC3)nn(C)c2C1
cytotoxicity at 70.5 h: -13.7%

O=C(c1ccnnc1)N1C[C@@H]2OCCN(CCN3CCCC3)[C@@H]2C1
cytotoxicity at 70.5 h: 4.4%

FC1(F)CCN(Cc2ccncc2)CC12CCN(Cc1ccccn1)C2 (stereo not given)
cytotoxicity at 70.5 h: 14.3%

c1ccc(NCc2cn3c(n2)CN(Cc2cccnc2)CC3)nc1
cytotoxicity at 70.5 h: -10%
